For series [1], the system named is D-aminoacylase. The series is described as follows: Substrate specificity of the D-aminoacylase (amino acid produced, assayed by TNBS or HPLC method). The format is biochemical, Hypomyces mycophilus. Conditions: for catalytic activity of the D-aminoacylase for the substrate: 20 mM substrate, 50 mM Tris-HCl pH 7.5, 30° C., 20 minutes; for substrate specificity: the enzyme acts on / not on the substrate: purified enzyme, property (c). As to the method:
The substrate specificity of the D-aminoacylase of the present invention can be tested by the following procedure. For example, an enzyme solution (1 μl) is mixed and incubated with 50 mM Tris-HCl (pH 7.5) buffer (total volume: 1.0 ml) containing 20 mM substrate (various N-acetyl-D-amino acids) at 30° C. for 20 minutes. By measuring the amounts of amino acid synthesized by this reaction, enzymatic activities for respective substrates can be compared with each other. Assay for amino acid is performed by TNBS (trinitrobenzenesulfonic acid) method or HPLC method. For example, D-tryptophan, which may be used as a standard product in the reaction, is assayed for a comparison of enzymatic activity; by taking the amount of enzyme required for the production of 1 μmol D-tryptophan as 1 unit (or U), the reactivity is compared between different enzymes or is compared with the reactivity assayed for other types of amino acids.

For series [2] the following is noted: in vivo; cited from earlier work.
For series [3], the system named is D-aminoacylase. The series is described as follows: Stabilizer/activator effect on D-aminoacylase activity. The series is classed as biochemical, Hypomyces mycophilus. An excerpt: (f) stabilizer: the enzyme activity is stabilized by reducing agents and activated by ICH2CONH2.
Series [4] in a line: Optimal reaction temperature of the purified D-aminoacylase. The format is biochemical, Hypomyces mycophilus. Conditions: reaction at pH 7.5. As to the method:
(e) optimal temperature: for the reaction at pH 7.5, the enzyme activity is optimal at about 45° C.; and […]

Consider `O=C(CCl)N[C@H](Cc1ccccc1)C(=O)O` [N-chloroacetyl-D-phenylalanine], for which the “catalytic activity of the D-aminoacylase for the substrate” value (shortened to “catalytic activity of the D-aminoacylase”) with D-aminoacylase [1] was “very efficiently catalyzes the reaction”.
Consider `O=C1CCC(N2C(=O)c3ccccc3C2=O)C(=O)N1` [D(R)-form thalidomide, thalidomide], for which the teratogenic activity result in series [2] is recorded as “no teratogenic activity”.
As to `CSCC[C@@H](NC(C)=O)C(=O)O` [N-acetyl-D-methionine], in the series on D-aminoacylase [1], the “catalytic activity of the D-aminoacylase” value is “efficiently catalyzes the reaction” and the “substrate specificity: the enzyme acts on / not on the substrate” value is recorded as “acts on”.
For `CC(=O)N[C@@H](CC(C)C)C(=O)O` [N-acetyl-L-leucine], in that order: “substantially no catalytic activity” and “not on”.
As to `CC(=O)N[C@@H](C(=O)O)C(C)C` [N-acetyl-D-valine], in the series with D-aminoacylase [1], the “catalytic activity of the D-aminoacylase” value is “catalyzes the reaction” and the “substrate specificity: the enzyme acts on / not on the substrate” value is “acts on”.
Turning to `CC(=O)N[C@@H](Cc1c[nH]c2ccccc12)C(=O)O` [N-acetyl-L-tryptophan], in the series with D-aminoacylase [1], the “catalytic activity of the D-aminoacylase” value was “substantially no catalytic activity” and the “substrate specificity: the enzyme acts on / not on the substrate” value is “not on”.
Take `CC(=O)N[C@@H](Cc1ccccc1)C(=O)O` [N-acetyl-L-phenylalanine]: in the series on D-aminoacylase [1], the “catalytic activity of the D-aminoacylase” value is given as “substantially no catalytic activity” and the “substrate specificity: the enzyme acts on / not on the substrate” value is on record as “not on”.
As for `O=C1CCC(N2C(=O)c3ccccc3C2=O)C(=O)N1` [L(S)-form, thalidomide], the teratogenic activity entry in series [2] is reported as “strong teratogenicity”.
With `CC(=O)N[C@H](Cc1ccccc1)C(=O)O` [N-acetyl-D-phenylalanine], in the series with D-aminoacylase [1], the “catalytic activity of the D-aminoacylase” value is “very efficiently catalyzes the reaction” and the “substrate specificity: the enzyme acts on / not on the substrate” value was “acts on”.
As to `CC(=O)N[C@H](Cc1c[nH]c2ccccc12)C(=O)O` [N-acetyl-D-tryptophan], in the series with D-aminoacylase [1], the “catalytic activity of the D-aminoacylase” value is “efficiently catalyzes the reaction” and the “substrate specificity: the enzyme acts on / not on the substrate” value was “acts on”.
Regarding `CC(=O)N[C@H](CC(C)C)C(=O)O` [N-acetyl-D-leucine], in the series with D-aminoacylase [1], the “catalytic activity of the D-aminoacylase” value is “efficiently catalyzes the reaction” and the “substrate specificity: the enzyme acts on / not on the substrate” value is listed as “acts on”.
For `CSCC[C@H](NC(C)=O)C(=O)O` [N-acetyl-L-methionine], in that order: “substantially no catalytic activity” and “not on”.
In the case of `NC(=O)CI` [ICH2CONH2], the “effect on D-aminoacylase enzyme activity” value with D-aminoacylase [3] is on record as “activated”.
Turning to `CC(=O)N[C@H](C(=O)O)C(C)C` [N-acetyl-L-valine], in the series on D-aminoacylase [1], the “catalytic activity of the D-aminoacylase” value was “substantially no catalytic activity” and the “substrate specificity: the enzyme acts on / not on the substrate” value was “not on”.

B1: D-aminoacylase: D-aminoacylase purified from Hypomyces mycophilus IFO 6785, comprising the amino acid sequence of SEQ ID NO: 2 (protein)
chain: MRTEILFHSATVITGDEAAQPFVADVLVSKGLIAKIGNPGSINATPDTRHLDVTGYILSPGFIDMHAHSDLYLLSHPDHEAKITQGCTTEVVGQDGISYAPIRNVDQLRAIREQIAGWNGNPTDEECRTTLKGVGMFEWQTIGEYLDCLERNRTATNVAMLVPQGNLRLLACGPYDTPASAEEIQDQIQLLREAMAQGAVGMSSGLTYTPGMYASTSELASLCAALAQEFPGAFYAPHHRSYGFQAIESYAEMLDLGESTGCPIHLTHATLNFSENKGKAPVLISMVDKSLAAGVDVTLDTYPYLPGCTTLAALLPSWASAGGPQETLKRLEDAESREKIRIAVEIKGCDGGHGIPTNWDEIQIGTTNEPSIASYSGRRLSEVAQSVGKPTIEVFFEILQKDKLATSCIMHVGNEENVRQIMQHRVHMAGSDGILHGQTLHPRAYGTFTRYLGHYSRELSLVALPSMIAHLTSRPAKRLSVYPYRGLIAEGSAADIVVFNPETVKDMSTYEEPKVPSRGIRFVLVNGQIAVDEGKMTGTRGGKTLRRSTDGKVKARDE
For B1, the “optimal temperature of enzyme activity” value in series [4] was “about 45 °C”.

The values above are taken from US6780619B2, “D-aminoacylase and gene encoding the same” (priority 2000, dated 2004).
